In US8759535B2, “Substituted fused imidazole derivatives, pharmaceutical compositions, and methods of use thereof” (High Point Pharmaceuticals, LLC, priority 2010, dated 2014):

These molecules were tested on HMOX1 (assay: HMOX1 Protein Assay (immunostaining of HO-1 in NHLF cells, GE InCell 1000)). Settings: Homo sapiens, fold change above DMSO treated cells, 3 μM compound (asterisk), 16 h.
Format: cell-based
Method: Cell Culture. Normal Human Fibroblast (NHLF), were obtained from Lonza. Cultures of cells were maintained in Fibroblast Growth Medium (FGM-2) medium supplemented with 2% fetal bovine serum (FBS), Fibroblast Growth Factor (hFGF-B) 0.5 mL, Insulin 0.5 mL, gentamicin/amphotericin-B 0.5 mL at 37° C. in a humidified atmosphere of 5% CO2. Cells were grown to 80% confluence before treating.
HMOX1 Protein Assay. NHLF cells were grown to 80% confluency and harvested by washing once with HEPES and then trypsinized. Equal numbers (2×10^3 cells per well) of NHLF cells were plated in 384 well optilux tissue culture (BD) plates. Cells were incubated overnight in FGM-2 medium prior to exposure to compound. Cells were treated with either vehicle (DMSO) or compound (dissolved in vehicle) for 16 h. Cells were washed 2× with 1×PBS and fixed with 4% Paraformaldyhyde for 15 min. The fixed cells were then permeabalized with 0.1% Triton X-100 and blocked with 5% BSA in 1×PBS 0.05% Tween-20 for 15 min. HO-1 antibody (abcam) was used for immunostaining at 1:300 dilution in 1% BSA in 1×PBS for 1 hour. Cells were washed 2× with 1×PBS and secondary antibody goat anti-mouse Alexa 488 1:400 dilution (Invitrogen); Hoechst 1:2000 (Invitrogen) in 1% BSA in 1×PBS for 1 hour. Plate was washed 5× with 1×PBS and read at Hoechst Ex.360 […]; Alexa 488 Ex.480 Em. 535 using GE InCell 1000. Results analyzed using GE InCell Analyzer software. Heme oxygenase data represents the fold change above DMSO treated cells.
In general, the fold induction data are reported for 5 μM concentration (i.e., μ-moles of compound to total volume, where the solvent is about 99.2% media and 0.8% DMSO). In some instances, the reported data are for 3 μM concentration, which are indicated by an asterisk (*).

Compound | fold induction at 3 µM
CC(O)C(=O)N1CC[C@@H](NC(=O)c2ccc3c(c2)nc(Nc2nc4ccc(Cl)cc4s2)n3C)C1 (stereo in doubt) [Example 295, 2-(6-Chloro-benzothiazol-2-ylamino)-1-methyl-1H-benzoimidazole-5-carboxylic acid [(R)-1-((R)-2-hydroxy-propionyl)-pyrrolidin-3-yl]-amide] | 29

Same assay, conditions: Homo sapiens, fold change above DMSO treated cells, 5 μM compound, 16 h

Compound | fold induction at 5 µM
CNC(=O)c1ccc2c(c1)nc(Nc1nc3ccc(OC(F)(F)F)cc3s1)n2C [Example 1, 1-Methyl-2-(6-trifluoromethoxy-benzothiazol-2-ylamino)-1H-benzoimidazole-5-carboxylic acid methyl amide] | 19.4
COC(=O)c1ccc2c(c1)nc(Nc1nc3ccc(OC(F)(F)F)cc3s1)n2C [Example 2, 1-Methyl-2-(6-trifluoromethoxy-benzothiazol-2-ylamino)-1H-benzoimidazole-5-carboxylic acid methyl ester] | 6.51
Cn1c(Nc2nc3ccc(OC(F)(F)F)cc3s2)nc2cc(C(=O)O)ccc21 [Example 3, 1-Methyl-2-(6-trifluoromethoxy-benzothiazol-2-ylamino)-1H-benzoimidazole-5-carboxylic acid] | 12.5
CCOCCNC(=O)c1ccc2c(c1)nc(Nc1nc3ccc(OC(F)(F)F)cc3s1)n2C [Example 4, 1-Methyl-2-(6-trifluoromethoxy-benzothiazol-2-ylamino)-1H-benzoimidazole-5-carboxylic acid (2-ethoxy-ethyl)-amide] | 11.9
Cn1c(Nc2nc3ccc(OC(F)(F)F)cc3s2)nc2cc(C(=O)NCC3CC3)ccc21 [Example 5, 1-Methyl-2-(6-trifluoromethoxy-benzothiazol-2-ylamino)-1H-benzoimidazole-5-carboxylic acid cyclopropylmethyl-amide] | 8.33
CCNC(=O)c1ccc2c(c1)nc(Nc1nc3ccc(OC(F)(F)F)cc3s1)n2C [Example 6, 1-Methyl-2-(6-trifluoromethoxy-benzothiazol-2-ylamino)-1H-benzoimidazole-5-carboxylic acid ethylamide] | 9.45
Cn1c(Nc2nc3ccc(OC(F)(F)F)cc3s2)nc2cc(C(=O)N3CCCC3)ccc21 [Example 7, [1-Methyl-2-(6-trifluoromethoxy-benzothiazol-2-ylamino)-1H-benzoimidazol-5-yl]-pyrrolidin-1-yl-methanone] | 5.4
COCCNC(=O)c1ccc2c(c1)nc(Nc1nc3ccc(OC(F)(F)F)cc3s1)n2C [Example 8, 1-Methyl-2-(6-trifluoromethoxy-benzothiazol-2-ylamino)-1H-benzoimidazole-5-carboxylic acid (2-methoxy-ethyl)-amide] | 18.3
Cn1c(Nc2nc3ccc(OC(F)(F)F)cc3s2)nc2cc(C(=O)NCCF)ccc21 [Example 9, 1-Methyl-2-(6-trifluoromethoxy-benzothiazol-2-ylamino)-1H-benzoimidazole-5-carboxylic acid (2-fluoro-ethyl)-amide] | 11.2
Cn1c(Nc2nc3ccc(OC(F)(F)F)cc3s2)nc2cc(C(=O)NCCO)ccc21 [Example 10, 1-Methyl-2-(6-trifluoromethoxy-benzothiazol-2-ylamino)-1H-benzoimidazole-5-carboxylic acid (2-hydroxy-ethyl)-amide] | 19.9
Cn1c(Nc2nc3ccc(OC(F)(F)F)cc3s2)nc2cc(C(=O)NCCCn3cccn3)ccc21 [Example 11, 1-Methyl-2-(6-trifluoromethoxy-benzothiazol-2-ylamino)-1H-benzoimidazole-5-carboxylic acid (3-pyrazol-1-yl-propyl)-amide] | 25
CCCNC(=O)c1ccc2c(c1)nc(Nc1nc3ccc(OC(F)(F)F)cc3s1)n2C [Example 12, 1-Methyl-2-(6-trifluoromethoxy-benzothiazol-2-ylamino)-1H-benzoimidazole-5-carboxylic acid propylamide] | 16.2
Cn1c(Nc2nc3ccc(OC(F)(F)F)cc3s2)nc2cc(C(=O)NCCCO)ccc21 [Example 13, 1-Methyl-2-(6-trifluoromethoxy-benzothiazol-2-ylamino)-1H-benzoimidazole-5-carboxylic acid (3-hydroxy-propyl)-amide] | 20.1
CCOCCCNC(=O)c1ccc2c(c1)nc(Nc1nc3ccc(OC(F)(F)F)cc3s1)n2C [Example 14, 1-Methyl-2-(6-trifluoromethoxy-benzothiazol-2-ylamino)-1H-benzoimidazole-5-carboxylic acid (3-ethoxy-propyl)-amide] | 22
Cn1c(Nc2nc3ccc(OC(F)(F)F)cc3s2)nc2cc(C(=O)NN3CCOCC3)ccc21 [Example 15, 1-Methyl-2-(6-trifluoromethoxy-benzothiazol-2-ylamino)-1H-benzoimidazole-5-carboxylic acid morpholin-4-ylamide] | 22.8
Cn1c(Nc2nc3ccc(OC(F)(F)F)cc3s2)nc2cc(C(=O)NCC(F)(F)F)ccc21 [Example 16, 1-Methyl-2-(6-trifluoromethoxy-benzothiazol-2-ylamino)-1H-benzoimidazole-5-carboxylic acid (2,2,2-trifluoro-ethyl)-amide] | 30
Cn1c(Nc2nc3ccc(OC(F)(F)F)cc3s2)nc2cc(C(=O)NCC3CCOCC3)ccc21 [Example 17, 1-Methyl-2-(6-trifluoromethoxy-benzothiazol-2-ylamino)-1H-benzoimidazole-5-carboxylic acid (tetrahydro-pyran-4-ylmethyl)-amide] | 21.4
Cn1c(Nc2nc3ccc(OC(F)(F)F)cc3s2)nc2cc(C(=O)NCC3CCCO3)ccc21 (centres unmarked) [Example 18, 1-Methyl-2-(6-trifluoromethoxy-benzothiazol-2-ylamino)-1H-benzoimidazole-5-carboxylic acid (tetrahydro-furan-2-ylmethyl)-amide] | 20.1
COCCCNC(=O)c1ccc2c(c1)nc(Nc1nc3ccc(OC(F)(F)F)cc3s1)n2C [Example 19, 1-Methyl-2-(6-trifluoromethoxy-benzothiazol-2-ylamino)-1H-benzoimidazole-5-carboxylic acid (3-methoxy-propyl)-amide] | 21.1
COCC(C)NC(=O)c1ccc2c(c1)nc(Nc1nc3ccc(OC(F)(F)F)cc3s1)n2C (centres unmarked) [Example 20, 1-Methyl-2-(6-trifluoromethoxy-benzothiazol-2-ylamino)-1H-benzoimidazole-5-carboxylic acid (2-methoxy-1-methyl-ethyl)-amide] | 18.6
CC(O)CNC(=O)c1ccc2c(c1)nc(Nc1nc3ccc(OC(F)(F)F)cc3s1)n2C (centres unmarked) [Example 21, 1-Methyl-2-(6-trifluoromethoxy-benzothiazol-2-ylamino)-1H-benzoimidazole-5-carboxylic acid (2-hydroxy-propyl)-amide] | 19.6
COC(C)(C)CNC(=O)c1ccc2c(c1)nc(Nc1nc3ccc(OC(F)(F)F)cc3s1)n2C [Example 22, 1-Methyl-2-(6-trifluoromethoxy-benzothiazol-2-ylamino)-1H-benzoimidazole-5-carboxylic acid (2-methoxy-2-methyl-propyl)-amide] | 18.7
COC(=O)c1ccc2c(c1)nc(Nc1nc3ccc(C(F)(F)F)cc3s1)n2C [Example 23, 1-Methyl-2-(6-trifluoromethyl-benzothiazol-2-ylamino)-1H-benzoimidazole-5-carboxylic acid methyl ester] | 4.11
Cn1c(Nc2nc3ccc(C(F)(F)F)cc3s2)nc2cc(C(=O)O)ccc21 [Example 24, 1-Methyl-2-(6-trifluoromethyl-benzothiazol-2-ylamino)-1H-benzoimidazole-5-carboxylic acid] | 20.7
COCCNC(=O)c1ccc2c(c1)nc(Nc1nc3ccc(C(F)(F)F)cc3s1)n2C [Example 25, 1-Methyl-2-(6-trifluoromethyl-benzothiazol-2-ylamino)-1H-benzoimidazole-5-carboxylic acid (2-methoxy-ethyl)-amide] | 27.1
CCNC(=O)c1ccc2c(c1)nc(Nc1nc3ccc(C(F)(F)F)cc3s1)n2C [Example 26, 1-Methyl-2-(6-trifluoromethyl-benzothiazol-2-ylamino)-1H-benzoimidazole-5-carboxylic acid ethylamide] | 15.5
Cn1c(Nc2nc3ccc(C(F)(F)F)cc3s2)nc2cc(C(=O)NCCO)ccc21 [Example 27, 1-Methyl-2-(6-trifluoromethyl-benzothiazol-2-ylamino)-1H-benzoimidazole-5-carboxylic acid (2-hydroxy-ethyl)-amide] | 23.2
COC(=O)c1ccc2c(c1)nc(Nc1nc3ccc(Cl)cc3s1)n2C [Example 28, 2-(6-Chloro-benzothiazol-2-ylamino)-1-methyl-1H-benzoimidazole-5-carboxylic acid methyl ester] | 10.1
